{
  "source": "ChEMBL document CHEMBL1128889",
  "about": "“Preparation and biological evaluation of -Trifluoromethyl-,-unsaturated carbonyl compounds” (Bioorg Med Chem Lett, 1995)",
  "experiment": "In vitro viable cell inhibitory towards interleukin-2 antiproducing effect was determined.",
  "type": "functional",
  "data": [
    {"smiles": "CC1(C)OC[C@H]([C@H](OC(=O)/C=C/C(F)(F)F)[C@@H](OC(=O)/C=C/C(F)(F)F)[C@H]2COC(C)(C)O2)O1", "values": [
      {"measurement": "IC50", "value": 0.8, "unit": "µg/mL"}
    ]},
    {"smiles": "CC1(C)COC(=O)[C@@H]1OC(=O)/C=C/C(F)(F)F", "values": [
      {"measurement": "IC50", "value": 3.71, "unit": "µg/mL"}
    ]}
  ]
}
